Experimental data taken from patent US10385024B2, “Compounds and methods for inhibiting NHE-mediated antiport in the treatment of disorders associated with fluid retention or salt overload and gastrointestinal tract disorders” (Ardelyx, Inc., priority 2012, dated 2019).

How the values were obtained:
human NHE-3 = target: T1, human NHE-3 (Homo sapiens, UniProt P48764); assay: Cell-based assay of NHE-3 activity (human NHE3 inhibition assay); settings: OK cells with human NHE-3 gene, BCECF pH dye, 0-30 μM test compound; read-out: Human NHE3 pIC50 (converted)
T1 construct: expressed in transfected cells; host or cells: Opossum kidney (OK) cells (ATCC), transfected by electroporation
T1 sequence (P48764 26-834): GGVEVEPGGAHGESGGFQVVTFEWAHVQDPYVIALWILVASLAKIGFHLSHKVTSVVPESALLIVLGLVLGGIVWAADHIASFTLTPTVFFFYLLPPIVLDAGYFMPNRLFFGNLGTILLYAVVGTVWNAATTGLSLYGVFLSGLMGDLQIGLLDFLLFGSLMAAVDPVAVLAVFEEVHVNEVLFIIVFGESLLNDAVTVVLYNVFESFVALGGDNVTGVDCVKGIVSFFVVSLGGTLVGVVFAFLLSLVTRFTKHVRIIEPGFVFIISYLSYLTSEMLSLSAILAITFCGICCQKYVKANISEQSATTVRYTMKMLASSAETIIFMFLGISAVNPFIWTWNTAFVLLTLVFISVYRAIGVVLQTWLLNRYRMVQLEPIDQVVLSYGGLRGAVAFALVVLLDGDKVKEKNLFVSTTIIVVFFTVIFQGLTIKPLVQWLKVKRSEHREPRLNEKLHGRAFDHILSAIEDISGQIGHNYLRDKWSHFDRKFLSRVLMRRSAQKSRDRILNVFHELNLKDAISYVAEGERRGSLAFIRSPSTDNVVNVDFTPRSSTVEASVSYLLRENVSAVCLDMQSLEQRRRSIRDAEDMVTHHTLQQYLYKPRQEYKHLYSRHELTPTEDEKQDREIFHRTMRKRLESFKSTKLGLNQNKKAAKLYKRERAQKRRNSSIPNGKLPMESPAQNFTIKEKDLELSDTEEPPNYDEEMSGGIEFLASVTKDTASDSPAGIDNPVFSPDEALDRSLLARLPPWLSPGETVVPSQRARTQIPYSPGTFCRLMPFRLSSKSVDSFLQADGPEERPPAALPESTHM
Summary of the method: (§1)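 Opossum kidney cells electroporated with rat or human NHE-3, loaded with 5 μM BCECF-AM in NH4Cl-HEPES pH 7.4 for 30 min at RT, then acidified 10 min in Na+-free choline HEPES. Na+-dependent pH recovery rates from BCECF fluorescence, averaged over ≥2 replicates, gave pIC50.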

[1] = Pharmacokinetic evaluation in bile; assay type: in vivo, Sprague-Dawley rats; settings: bile duct cannulated rats, oral gavage, nominal dose 30 mg/kg, bile collected over 24 h, mean of n=3
Protocol: Bile duct cannulated (BDC) Sprague-Dawley rats were dosed with test compounds by oral gavage and a single aliquot of bile was collected via cannula over the 24 h following dosing. Bile samples were treated with acetonitrile and precipitated proteins were removed by centrifugation. Some compounds required liquid-liquid extraction using MTBE. After centrifugation, samples were diluted as appropriate in mobile phase and analyzed by LC-MS/MS. The concentrations of compounds in bile were determined by interpolation from a standard calibration curve prepared in rat bile from untreated BDC rats. Accurate recovery of quality control samples was confirmed to accept each analytical run. Concentration in bile is reported in nM and represents the mean result from n=3 rats.

Plasma PK = assay type: in vivo, Sprague-Dawley rats; settings: Sprague-Dawley; rat plasma, oral gavage, nominal dose 30 mg/kg, mean of n=3, sampling 0.5-4 h
Protocol: Sprague-Dawley rats (n=3) were dosed with test compounds by oral gavage. Blood was collected at 0.5, 1, 2 and 4 h via retro-orbital bleeds and processed to plasma using K2EDTA as an anticoagulant. Plasma samples were treated with acetonitrile containing an internal standard and precipitated proteins were removed by centrifugation. Supernatants were analyzed by LC-MS/MS and compound concentrations were determined by interpolation from a calibration curve prepared in plasma. Accurate recovery of quality control samples were confirmed to accept each analytical run.

Rat NHE-3 = target: T2, Rat NHE-3 (Rattus norvegicus, UniProt P26433); assay: Cell-based assay of NHE-3 activity (rat NHE-3 prompt inhibition); settings: OK cells with rat NHE-3 gene, compound present during pH recovery; read-out: Rat NHE3 pIC50 (prompt) (converted)
T2 construct: expressed in transfected cells; host or cells: Opossum kidney (OK) cells (ATCC), transfected by electroporation
Summary of the method: as §1

T2 sequence (P26433 29-831): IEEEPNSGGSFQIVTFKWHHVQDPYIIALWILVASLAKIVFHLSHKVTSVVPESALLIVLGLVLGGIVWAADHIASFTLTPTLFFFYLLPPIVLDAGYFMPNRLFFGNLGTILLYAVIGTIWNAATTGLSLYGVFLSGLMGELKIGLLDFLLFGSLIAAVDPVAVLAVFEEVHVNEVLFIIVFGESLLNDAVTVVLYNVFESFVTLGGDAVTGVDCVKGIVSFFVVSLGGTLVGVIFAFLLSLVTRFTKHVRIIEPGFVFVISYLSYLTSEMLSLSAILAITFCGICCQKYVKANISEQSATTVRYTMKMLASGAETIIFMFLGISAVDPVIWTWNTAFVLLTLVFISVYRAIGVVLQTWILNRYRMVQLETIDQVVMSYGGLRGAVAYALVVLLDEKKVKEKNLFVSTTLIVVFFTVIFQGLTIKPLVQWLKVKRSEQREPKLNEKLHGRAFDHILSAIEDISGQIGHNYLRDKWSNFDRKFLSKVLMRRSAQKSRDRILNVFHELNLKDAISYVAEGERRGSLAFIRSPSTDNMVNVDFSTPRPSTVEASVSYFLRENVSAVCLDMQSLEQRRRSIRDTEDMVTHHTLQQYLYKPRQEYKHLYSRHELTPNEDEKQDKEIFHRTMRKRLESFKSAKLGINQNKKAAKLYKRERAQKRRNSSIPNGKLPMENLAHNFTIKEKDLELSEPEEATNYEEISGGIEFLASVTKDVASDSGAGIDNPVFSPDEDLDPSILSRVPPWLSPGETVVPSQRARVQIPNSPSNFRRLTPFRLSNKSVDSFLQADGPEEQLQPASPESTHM

In the case of `CN1Cc2c(Cl)cc(Cl)cc2[C@H](c2cccc(S(=O)(=O)NCCOCCOCCNC(=O)CCC(N)(CCC(=O)NCCOCCOCCNS(=O)(=O)c3cccc([C@@H]4CN(C)Cc5c(Cl)cc(Cl)cc54)c3)CCC(=O)NCCOCCOCCNS(=O)(=O)c3cccc([C@@H]4CN(C)Cc5c(Cl)cc(Cl)cc54)c3)c2)C1` [Example 2, 4-amino-N^1,N^7-bis(2-(2-(2-(3-((S)-6,8-dichloro-2-methyl-1,2,3,4-tetrahydroisoquinolin-4-yl)phenylsulfonamido)ethoxy)ethoxy)ethyl)-4-(3-(2-(2-(2-(3-((S)-6,8-dichloro-2-methyl-1,2,3,4-tetrahydroisoquinolin-4-yl)phenylsulfonamido)ethoxy)ethoxy)ethylamino)-3-oxopropyl)heptanediamide], the IC50 (human NHE-3) is reported as < 100 nM, the “Concentration in Bile” value [1] is reported as 4 nM and the AUC (Plasma PK) is reported as < 12 ng·h/mL. The Cmax (Plasma PK) was < 4 ng/mL and the IC50 (Rat NHE-3) was < 100 nM.
For `CN1Cc2c(Cl)cc(Cl)cc2[C@H](c2cccc(S(=O)(=O)NCCOCCOCCNC(=O)CCC(CCC(=O)NCCOCCOCCNS(=O)(=O)c3cccc([C@@H]4CN(C)Cc5c(Cl)cc(Cl)cc54)c3)(CCC(=O)NCCOCCOCCNS(=O)(=O)c3cccc([C@@H]4CN(C)Cc5c(Cl)cc(Cl)cc54)c3)N(C)C)c2)C1` [Example 4, N^1,N^7-bis(2-(2-(2-(3-((S)-6,8-dichloro-2-methyl-1,2,3,4-tetrahydroisoquinolin-4-yl)phenylsulfonamido)ethoxy)ethoxy)ethyl)-4-(3-(2-(2-(2-(3-((S)-6,8-dichloro-2-methyl-1,2,3,4-tetrahydroisoquinolin-4-yl)phenylsulfonamido)ethoxy)ethoxy)ethylamino)-3-oxopropyl)-4-(dimethylamino)heptanediamide], the IC50 (human NHE-3) was < 100 nM, the “Concentration in Bile” value [1] was 45 nM and the AUC (Plasma PK) was < 13 ng·h/mL. The Cmax (Plasma PK) was < 5 ng/mL and the IC50 (Rat NHE-3) was < 100 nM.
For `CN1Cc2c(Cl)cc(Cl)cc2[C@H](c2cccc(S(=O)(=O)NCCOCCOCCNC(=O)CCC(CCC(=O)NCCOCCOCCNS(=O)(=O)c3cccc([C@@H]4CN(C)Cc5c(Cl)cc(Cl)cc54)c3)(CCC(=O)NCCOCCOCCNS(=O)(=O)c3cccc([C@@H]4CN(C)Cc5c(Cl)cc(Cl)cc54)c3)NC(=O)NCC(=O)O)c2)C1` [Example 7, 18-(3-((S)-6,8-dichloro-2-methyl-1,2,3,4-tetrahydroisoquinolin-4-yl)phenylsulfonamido)-6,6-bis(3-(2-(2-(2-(3-((S)-6,8-dichloro-2-methyl-1,2,3,4-tetrahydroisoquinolin-4-yl)phenylsulfonamido)ethoxy)ethoxy)ethylamino)-3-oxopropyl)-4,9-dioxo-13,16-dioxa-3,5,10-triazaoctadecan-1-oic acid], the IC50 (human NHE-3) was < 100 nM, the “Concentration in Bile” value [1] was 19 nM and the AUC (Plasma PK) was < 8 ng·h/mL. For the same molecule, the Cmax (Plasma PK) was < 2 ng/mL and the IC50 (Rat NHE-3) was < 100 nM.
